In patent publication US9604961B2, “Histone demethylase inhibitors” (Celgene Quanticel Research, Inc., priority 2012, dated 2017):
Like-named read-outs stand apart in the source and are kept apart here.

Columns and labels:
[1] = target: FBXL10 (Homo sapiens (Human), UniProt Q8NHM5); experiment: FBXL10 in vitro enzyme inhibition assay (AlphaScreen); format: biochemical
Method: Reaction product was determined quantitatively by AlphaScreen detection after the addition of detection reagents anti-H3K36me1 antibody, AlphaScreen® Streptavidin-coated Donor beads, and AlphaScreen® Protein A Acceptor beads in 50 mM HEPES, pH7.3, 10 mM NaCl, 0.005% Brij35, 5 mM EDTA, 2 mg/ml BSA to final 10 μg/ml beads.
Plates were incubated at room temperature for 40 minutes, followed by addition of 3 μl of 50 μg/ml AlphaScreen® Streptavidin-coated Donor beads and AlphaScreen® Protein A Acceptor beads in 50 mM HEPES, pH7.3, 10 mM NaCl, 0.005% Brij35, 5 mM EDTA, 2 mg/ml BSA. Plates were read by EnVisionMultilabel Reader in AlphaScreen mode after a minimum of 2 hour or up to overnight incubation at room temperature. The AlphaScreen signal for each well was used to determine inhibition constant (IC50).

[2] = target: Jarid1A (Homo sapiens (Human), UniProt P29375); experiment: Jarid1A in vitro enzyme inhibition assay (TR-FRET); format: biochemical
Sequence of Jarid1A (P29375 1-1090): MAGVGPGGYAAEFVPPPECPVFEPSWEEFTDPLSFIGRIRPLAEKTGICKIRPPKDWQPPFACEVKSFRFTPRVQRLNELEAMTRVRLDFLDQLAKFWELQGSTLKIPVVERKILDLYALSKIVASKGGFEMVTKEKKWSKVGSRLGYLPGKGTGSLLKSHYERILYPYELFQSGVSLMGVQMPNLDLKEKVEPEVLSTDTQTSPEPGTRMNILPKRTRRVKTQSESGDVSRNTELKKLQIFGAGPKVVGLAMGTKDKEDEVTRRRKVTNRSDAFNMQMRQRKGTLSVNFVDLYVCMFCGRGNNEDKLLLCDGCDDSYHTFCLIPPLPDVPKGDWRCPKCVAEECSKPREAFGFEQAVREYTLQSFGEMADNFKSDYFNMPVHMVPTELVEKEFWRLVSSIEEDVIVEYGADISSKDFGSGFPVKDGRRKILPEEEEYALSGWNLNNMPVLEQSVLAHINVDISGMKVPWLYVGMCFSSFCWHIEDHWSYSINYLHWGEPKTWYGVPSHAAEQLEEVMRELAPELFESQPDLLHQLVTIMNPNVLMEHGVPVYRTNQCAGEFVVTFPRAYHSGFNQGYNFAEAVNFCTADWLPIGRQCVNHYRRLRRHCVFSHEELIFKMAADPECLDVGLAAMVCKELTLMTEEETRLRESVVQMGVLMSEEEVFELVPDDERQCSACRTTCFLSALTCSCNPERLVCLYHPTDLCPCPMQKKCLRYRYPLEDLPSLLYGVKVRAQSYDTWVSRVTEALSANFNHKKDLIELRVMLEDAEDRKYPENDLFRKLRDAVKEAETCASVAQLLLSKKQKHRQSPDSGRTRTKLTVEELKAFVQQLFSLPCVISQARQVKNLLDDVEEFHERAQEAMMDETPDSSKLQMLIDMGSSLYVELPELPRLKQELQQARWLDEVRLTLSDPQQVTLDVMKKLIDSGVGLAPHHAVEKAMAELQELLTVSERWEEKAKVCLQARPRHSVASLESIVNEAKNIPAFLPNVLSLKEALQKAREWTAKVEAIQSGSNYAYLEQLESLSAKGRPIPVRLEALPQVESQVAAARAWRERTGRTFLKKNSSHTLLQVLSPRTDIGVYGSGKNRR
Source text: The enzymatic assay of Jarid1A activity is based upon Time Resolved-Fluorescence Resonance Energy Transfer (TR-FRET) detection.

[3] = target: Jarid1B (Homo sapiens (Human), UniProt Q9UGL1); experiment: Jarid1B in vitro enzyme inhibition assay (TR-FRET); format: biochemical
Sequence of Jarid1B (Q9UGL1 2-751): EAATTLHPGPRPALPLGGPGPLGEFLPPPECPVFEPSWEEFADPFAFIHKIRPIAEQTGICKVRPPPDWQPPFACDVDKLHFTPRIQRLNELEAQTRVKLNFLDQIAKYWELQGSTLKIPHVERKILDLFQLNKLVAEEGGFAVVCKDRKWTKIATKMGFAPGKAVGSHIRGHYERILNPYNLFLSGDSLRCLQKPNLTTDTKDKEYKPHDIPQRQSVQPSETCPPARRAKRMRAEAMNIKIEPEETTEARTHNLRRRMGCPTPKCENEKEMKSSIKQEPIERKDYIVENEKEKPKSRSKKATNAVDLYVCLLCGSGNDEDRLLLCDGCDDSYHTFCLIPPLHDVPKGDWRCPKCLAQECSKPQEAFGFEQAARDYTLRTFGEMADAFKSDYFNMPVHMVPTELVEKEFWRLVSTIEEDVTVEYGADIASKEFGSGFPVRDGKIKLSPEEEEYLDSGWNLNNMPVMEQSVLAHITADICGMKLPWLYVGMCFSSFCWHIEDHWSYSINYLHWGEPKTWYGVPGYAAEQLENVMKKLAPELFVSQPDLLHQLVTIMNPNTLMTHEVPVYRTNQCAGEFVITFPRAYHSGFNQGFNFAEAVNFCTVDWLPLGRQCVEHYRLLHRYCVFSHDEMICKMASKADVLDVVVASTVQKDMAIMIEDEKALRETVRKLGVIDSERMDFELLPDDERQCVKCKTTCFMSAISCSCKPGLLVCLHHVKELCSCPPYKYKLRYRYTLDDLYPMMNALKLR
Method: (§1) This assay determines the ability of a test compound to inhibit Jarid1A, Jarid1B, JMJD2C, and JMJD2A demethylase activity.
The ability of test compounds to inhibit the activity of Jarid1B was determined in 384-well plate format under the following reaction conditions: 0.8 nM Jarid1B, 300 nM H3K4me3-biotin labeled peptide (Anaspec cat #64357), 2 μM alpha-ketoglutaric acid in assay buffer of 50 mM HEPES, pH7.3, 0.005% Brij35, 0.5 mM TCEP, 0.2 mg/ml BSA, 50 μM sodium L-ascorbate, and 2 μM ammonium iron(II) sulfate. Reaction product was determined quantitatively by TR-FRET after the addition of detection reagent Phycolink Streptavidin-allophycocyanin (Prozyme) and Europium-anti-mono- or di-methylated histone H3 lysine 4 (H3K4me1-2) antibody (PerkinElmer) in the presence of 5 mM EDTA in LANCE detection buffer (PerkinElmer) at a final concentration of 25 nM and 1 nM, respectively.
The assay reaction was initiated by the following: 2 μl of the mixture of 900 nM H3K4me3-biotin labeled peptide and 6 μM alpha-ketoglutaric acid with 2 μl of 11-point serial diluted inhibitor in 3% DMSO was added to each well of the plate, followed by the addition of 2 μl of 2.4 nM Jarid1B to initiate the reaction. The reaction mixture was incubated at room temperature for 30 minutes, and terminated by the addition of 6 μl of 5 mM EDTA in LANCE detection buffer containing 50 nM Phycolink Streptavidin-allophycocyanin and 2 nM Europium-anti-H3K4me1-2 antibody. Plates were read by EnVisionMultilabel Reader in TR-FRET mode (excitation at 320 nm, emission at 615 nm and 665 nm) after 1 hour incubation at room temperature. A ratio was calculated (665/615) for each well and fitted to determine inhibition constant (IC50).

[4] = tested on: KDM5A/B; experiment: In vitro cell-based assay: quantitative immuno-blotting of tri-methyl H3K4 in ZR-75-1 breast cancer cells; settings: 72 hours exposure, read-out: Cellular IC50
Source text: This quantitative immuno-blotting assay measures the amount tri-methylated histone H3 at amino acid Lysine number 4, a specific substrate […] of the direct enzymatic activity of the histone demethylases KDM5A and KDM5B from extracts of the ZR-75-1 breast cancer cell line.
This assay is a fluorometric immunoassay for the quantification of tri-methyl H3K4 extracted from cells treated with test compound and is used as a measure of the cellular inhibition of KDM5A/B.
ZR-75-1 (PTEN null, ER+) breast cancer cells numbering 50,000 (ATCC) were seeded into each well of a 96-well tissue culture treated plate and then exposed to an 11 point dilution of test compound with final concentration ranges of test compound ranging from […] to 10 nM. […] Extracts were prepared containing all of the cellular histone material using detergent based lysis and sonication methods. These lysates were subsequently normalized for total protein content using a colorimetric bicinchonic acid assay (MicroBCA Pierce/Thermo Scientific). Normalized cell extracts were then subjected to typical immuno-blotting procedures using NuPage reagents (Life Technologies). Electrophoretically separated histones were then transferred and immobilized using polyvinylidene difluoride membrane (Immobilon-FL Millipore). The amount of tri-methylated lysine 4 of histone H3 was detected using an antibody specific to the tri-methylated state (Cell Signaling Technologies) and quantified on an infrared imager using a densitometry software package (Odyssey CLx, Image Studio, Li-Cor). This background subtracted densitometry value was reported as a ration of the GAPDH amount for that sample and then calculated as a percent of the DMSO treated sample. The software package XL-fit (IDBS) was then used to calculate a relative IC50 value for the dilution series of a given test compound according to the equation: fit=(D+((Vmax*(x^n))/((x^n)+(Km^n)))).

[5] = target: JMJD2C (Homo sapiens (Human), UniProt Q9H3R0); experiment: JMJD2C in vitro enzyme inhibition assay (TR-FRET); format: biochemical
Sequence of JMJD2C (Q9H3R0 2-372): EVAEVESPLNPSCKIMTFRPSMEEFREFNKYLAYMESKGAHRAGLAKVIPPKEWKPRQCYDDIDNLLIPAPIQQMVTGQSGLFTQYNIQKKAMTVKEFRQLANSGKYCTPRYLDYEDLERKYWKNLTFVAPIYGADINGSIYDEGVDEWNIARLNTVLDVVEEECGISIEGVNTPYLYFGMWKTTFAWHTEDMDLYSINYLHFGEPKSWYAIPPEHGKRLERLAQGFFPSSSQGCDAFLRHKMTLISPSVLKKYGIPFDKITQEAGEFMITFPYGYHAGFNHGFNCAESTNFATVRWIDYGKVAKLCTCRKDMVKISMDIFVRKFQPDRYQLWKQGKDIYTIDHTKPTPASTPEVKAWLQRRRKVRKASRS

[6] = target: JMJD2A (Homo sapiens (Human), UniProt O75164); experiment: JMJD2A in vitro enzyme inhibition assay (TR-FRET); settings: read-out: JMJD2A IC50
Sequence of JMJD2A (O75164 1-350): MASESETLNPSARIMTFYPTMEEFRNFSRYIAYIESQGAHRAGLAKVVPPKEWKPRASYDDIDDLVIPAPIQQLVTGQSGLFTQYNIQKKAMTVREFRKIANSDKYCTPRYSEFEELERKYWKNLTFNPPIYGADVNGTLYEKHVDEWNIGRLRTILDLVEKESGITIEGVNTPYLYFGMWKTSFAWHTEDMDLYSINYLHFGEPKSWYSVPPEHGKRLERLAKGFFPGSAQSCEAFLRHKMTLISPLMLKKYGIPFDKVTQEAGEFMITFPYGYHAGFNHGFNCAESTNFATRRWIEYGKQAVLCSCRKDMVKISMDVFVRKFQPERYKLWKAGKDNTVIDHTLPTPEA
Method: as §1
Reaction product was determined quantitatively by TR-FRET after the addition of detection reagent Phycolink Streptavidin-allophycocyanin (Prozyme) and Europium-anti-di-methylated histone H3 lysine 9 (H3K9me2) antibody (PerkinElmer) in the presence of 5 mM EDTA in LANCE detection buffer (PerkinElmer) at a final concentration of 50 nM and 1 nM, respectively.
The assay reaction was initiated by the following: 2 μl of the mixture of 900 nM H3K9me3-biotin labeled peptide and 6 μM alpha-ketoglutaric acid with 2 μl of 11-point serial diluted inhibitor in 3% DMSO were added to each well of plate, followed by the addition of 2 μl of 6 nM JMJD2A to initiate the reaction. The reaction mixture was incubated at room temperature for 30 minutes, and terminated by the addition of 6 μl of 5 mM EDTA in LANCE detection buffer containing 100 nM Phycolink Streptavidin-allophycocyanin and 2 nM Europium-anti-H3K9me2 antibody.

Sequence of FBXL10 (Q8NHM5 1-650): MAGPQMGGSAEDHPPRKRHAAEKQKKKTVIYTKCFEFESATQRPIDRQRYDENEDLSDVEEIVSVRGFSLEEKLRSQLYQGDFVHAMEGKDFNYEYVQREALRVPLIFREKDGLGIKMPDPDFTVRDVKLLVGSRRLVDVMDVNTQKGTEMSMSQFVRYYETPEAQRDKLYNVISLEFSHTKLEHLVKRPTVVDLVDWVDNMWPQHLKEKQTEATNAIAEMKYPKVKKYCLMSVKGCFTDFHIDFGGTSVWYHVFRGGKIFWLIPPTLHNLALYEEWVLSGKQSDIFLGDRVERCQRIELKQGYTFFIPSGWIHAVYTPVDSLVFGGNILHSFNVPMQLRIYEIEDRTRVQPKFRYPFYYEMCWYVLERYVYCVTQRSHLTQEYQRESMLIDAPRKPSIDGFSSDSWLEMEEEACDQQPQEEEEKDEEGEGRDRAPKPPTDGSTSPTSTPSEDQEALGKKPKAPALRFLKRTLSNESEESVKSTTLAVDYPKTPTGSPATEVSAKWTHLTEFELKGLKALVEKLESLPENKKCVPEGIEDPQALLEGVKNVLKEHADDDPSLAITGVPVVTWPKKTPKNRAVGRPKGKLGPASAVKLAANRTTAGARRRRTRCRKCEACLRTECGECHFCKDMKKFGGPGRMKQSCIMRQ

Row | Compound | IC50 [1] [nM] | IC50 [2] [nM] | IC50 [3] [nM] | IC50 ([4]; Homo sapiens) [nM] | IC50 [5] [nM] | IC50 [6] [nM] | IC50 [4] [nM]
1 | Cn1ncc2ccc(COc3ccnn3-c3cc(C(=O)O)ccn3)cc21 [Example 50, 2-{5-[(1-methyl-1H-indazol-6-yl)methoxy]-1H-pyrazol-1-yl}pyridine-4-carboxylic acid] | 100 to 1000 | < 100 | < 100 | > 10000 | – | – | –
2 | O=C(O)c1ccnc(-n2nccc2OCc2ccc(Br)cc2)c1 [Example 57, 2-{5-[(4-bromobenzyl)oxy]-1H-pyrazol-1-yl}pyridine-4-carboxylic acid] | – | < 100 | < 100 | 100 to 1000 | < 100 | – | –
3 | O=C(O)c1ccnc(-n2nccc2OCc2cccc(Br)c2)c1 [Example 72, 2-{5-[(3-bromobenzyl)oxy]-1H-pyrazol-1-yl}pyridine-4-carboxylic acid] | – | < 100 | < 100 | 1000 to 10000 | < 100 | – | –
4 | O=C(O)c1ccnc(-n2nccc2OCc2ccc(Cl)c(F)c2)c1 [Example 74, 2-{5-[(4-chloro-3-fluorobenzyl)oxy]-1H-pyrazol-1-yl}pyridine-4-carboxylic acid] | – | < 100 | < 100 | 1000 to 10000 | < 100 | – | –
5 | O=C(O)c1ccnc(-n2nccc2OCc2ccc(Cl)c(Cl)c2)c1 [Example 87, 2-[5-[(3,4-dichlorophenyl)methoxy]pyrazol-1-yl]pyridine-4-carboxylic acid] | – | < 100 | < 100 | 100 to 1000 | 100 to 1000 | – | –
6 | Cc1cc(Cl)ccc1COc1ccnn1-c1cc(C(=O)O)ccn1 [Example 89, 2-[5-[(4-chloro-2-methylphenyl)methoxy]pyrazol-1-yl]pyridine-4-carboxylic acid] | 100 to 1000 | < 100 | < 100 | < 100 | 100 to 1000 | – | –
7 | CCCCOc1cc(Cl)ccc1COc1ccnn1-c1cc(C(=O)O)ccn1 [Example 111, 2-[5-[(2-butoxy-4-chlorophenyl)methoxy]pyrazol-1-yl]pyridine-4-carboxylic acid] | 1000 to 10000 | 100 to 1000 | 100 to 1000 | – | 1000 to 10000 | 1000 to 10000 | –
8 | CC(C)COc1cc(Cl)ccc1COc1ccnn1-c1cc(C(=O)O)ccn1 [Example 112, 2-[5-[[4-chloro-2-(2-methylpropoxy)phenyl]methoxy]pyrazol-1-yl]pyridine-4-carboxylic acid] | 1000 to 10000 | 100 to 1000 | 100 to 1000 | – | 1000 to 10000 | 1000 to 10000 | –
9 | CCOc1cc(Cl)ccc1COc1ccnn1-c1cc(C(=O)O)ccn1 [Example 115, 2-[5-[(4-chloro-2-ethoxyphenyl)methoxy]pyrazol-1-yl]pyridine-4-carboxylic acid] | – | < 100 | < 100 | 100 to 1000 | 100 to 1000 | – | –
10 | O=C(O)c1ccnc(-n2nccc2OCc2ccc(Cl)cc2OCc2ccc(F)cc2)c1 [Example 117, 2-[5-[[4-chloro-2-[(4-fluorophenyl)methoxy]phenyl]methoxy]pyrazol-1-yl]pyridine-4-carboxylic acid] | 1000 to 10000 | 100 to 1000 | 100 to 1000 | 1000 to 10000 | 1000 to 10000 | 1000 to 10000 | –
11 | O=C(O)c1ccnc(-n2nccc2OCc2ccc(F)cc2OCc2ccc(F)cc2)c1 [Example 118, 2-[5-[[4-fluoro-2-[(4-fluorophenyl)methoxy]phenyl]methoxy]pyrazol-1-yl]pyridine-4-carboxylic acid] | 1000 to 10000 | < 100 | < 100 | – | 100 to 1000 | 100 to 1000 | –
12 | CC1(C)Cc2cccc(COc3ccnn3-c3cc(C(=O)O)ccn3)c2O1 [Example 124, 2-[5-[(2,2-dimethyl-3H-1-benzofuran-7-yl)methoxy]pyrazol-1-yl]pyridine-4-carboxylic acid] | – | 100 to 1000 | < 100 | > 10000 | – | – | –
13 | Cc1cc(C#N)ccc1COc1ccnn1-c1cc(C(=O)O)ccn1 [Example 125, 2-[5-[(4-cyano-2-methylphenyl)methoxy]pyrazol-1-yl]pyridine-4-carboxylic acid] | – | < 100 | < 100 | 1000 to 10000 | 100 to 1000 | – | –
14 | CCc1cc(Cl)ccc1COc1ccnn1-c1cc(C(=O)O)ccn1 [Example 127, 2-[5-[(4-chloro-2-ethylphenyl)methoxy]pyrazol-1-yl]pyridine-4-carboxylic acid] | – | 100 to 1000 | 100 to 1000 | 1000 to 10000 | 1000 to 10000 | – | –
15 | Cc1ccc(COc2ccnn2-c2cc(C(=O)O)ccn2)c(Cl)c1 [Example 130, 2-[5-[(2-chloro-4-methylphenyl)methoxy]pyrazol-1-yl]pyridine-4-carboxylic acid] | 1000 to 10000 | 100 to 1000 | 100 to 1000 | – | 1000 to 10000 | 100 to 1000 | –
16 | Cc1ccc(COc2ccnn2-c2cc(C(=O)O)ccn2)c(C)c1 [Example 132, 2-[5-[(2,4-dimethylphenyl)methoxy]pyrazol-1-yl]pyridine-4-carboxylic acid] | 1000 to 10000 | < 100 | < 100 | – | 100 to 1000 | 100 to 1000 | –
17 | COc1cc(C)ccc1COc1ccnn1-c1cc(C(=O)O)ccn1 [Example 133, 2-[5-[(2-methoxy-4-methylphenyl)methoxy]pyrazol-1-yl]pyridine-4-carboxylic acid] | 1000 to 10000 | < 100 | < 100 | 100 to 1000 | 100 to 1000 | 100 to 1000 | –
18 | O=C(O)c1ccnc(-n2nccc2OCc2ccc(F)c(OCc3ccc(F)cc3)c2)c1 [Example 139, 2-[5-[[4-fluoro-3-[(4-fluorophenyl)methoxy]phenyl]methoxy]pyrazol-1-yl]pyridine-4-carboxylic acid] | – | – | – | 100 to 1000 | – | – | –
19 | O=C(O)c1ccnc(-n2nc(-c3ccc(Cl)cc3)cc2O)c1 [Example 158, 2-[3-(4-chlorophenyl)-5-hydroxypyrazol-1-yl]pyridine-4-carboxylic acid] | < 100 | 1000 to 10000 | 1000 to 10000 | – | 1000 to 10000 | 1000 to 10000 | –
20 | O=C(O)c1ccnc(-n2nc(-c3cccc(Cl)c3)cc2O)c1 [Example 159, 2-[3-(3-chlorophenyl)-5-hydroxypyrazol-1-yl]pyridine-4-carboxylic acid] | < 100 | 1000 to 10000 | 1000 to 10000 | – | 1000 to 10000 | > 10000 | –
21 | O=C(O)c1ccnc(-n2nc(C3CCCC3)cc2O)c1 [Example 160, 2-(3-cyclopentyl-5-hydroxypyrazol-1-yl)pyridine-4-carboxylic acid] | < 100 | 1000 to 10000 | 100 to 1000 | – | 1000 to 10000 | > 10000 | –
22 | methyl 2-[5-(benzyloxy)-1H-pyrazol-1-yl]pyridine-4-carboxylate [Example 62] | – | – | – | – | – | – | 1000 to 10000
